Measured values: article PMC8465649, “Semaphorin 3A—Glycosaminoglycans Interaction as Therapeutic Target for Axonal Regeneration” (Pharmaceuticals, 2021)

Experiments:
[1] = system: SCTWT–heparin interaction; assay: 2D 1H-15N HSQC CSP: displacement of SCTWT from dp14 heparin; format: binding, human; details: 0.2 mM SCTWT, 0.05 mM dp14 heparin, 4 mM CSIC02, pH 4.5
Experimental: NMR competition experiments involved the acquisition of 1D-^1H WaterLOGSY or spin-lock filtered NMR spectra. Thus, FS2 peptide is displaced from heparin agarose resin by CSIC02 (1:1 peptoid/FS2, both 1 mM), but not by CSIC03 (Figure S15). […] We reasoned that if CSIC02 was able to interact with GAG and displace FS2/FS3 basic peptides, it may also interfere with SCTWT–heparin interaction. To investigate if CSIC02 could displace SCTWT from heparin dp14 and to define the SCTWT residues affected, 2D NMR ^1H-^15N HSQC CSP experiments were used. Figure 8a illustrates the chemical shift effects of CSIC02 addition to a sample of SCTWT containing dp14 heparin. […] In Figure 8b, we display the chemical shift perturbation of SCTWT NMR spectra in the presence of dp14 and CSIC02. Thus, as the two CSP plots in Figure 4b and Figure 8b were calculated using as reference SCTWT alone in solution, we can compare them directly. […]
Figure 8 (a) Overlay of [^1H-^15N]-HSQC spectra of 0.2 mM Sema3A C-terminal region (orange) highlighting the changes of 0.05 mM (or 0.35 mM in disaccharide units) dp14 heparin oligosaccharide binding in the absence (purple) and the presence (turquoise) of 4 mM CSIC02. […] The absolute values of the chemical shift differences between the presence and absence of dp14 are plotted in ppm and calculated comparing with the chemical shifts of the protein alone. […]

[2] = WaterLOGSY NMR direct binding to heparin agarose; details: 1D 1H WaterLOGSY
Experimental: Figure 6 (a) Chemical structures of triprotonated SICHI and CSIC02–04, as the main species in aqueous medium at neutral pH, and relative increase in MB absorbance at 665 nm versus charge ratio after the addition of the peptoids to the preformed MB/heparin complex (4.71 µM Hep repeating units + 9.83 µM MB in 5 mM Tris buffer at pH = 7.5). (b) 1D ^1H WaterLOGSY NMR experiments showing that CSIC02 binds to heparin agarose resin (used as a GAG mimetic).
As a simple way to characterize the GAG binding behavior, we applied the method previously described by Jiao et al., using the cationic dye known as methylene blue (MB) in a colorimetric competition assay. […] Next, we assessed the integrity and solubility of CSIC02 by NMR. […] Direct binding of CSIC02 to GAGs was qualitatively assessed by specific NMR experiments.
Next, 1D ^1H T1ρ relaxation filtered and WaterLOGSY NMR experiments were acquired at 25 °C on a 500-MHz spectrometer (Varian Inova; Agilent Technologies, Santa Clara, CA, USA) equipped with an AutoX inverse double-resonance probe with a z-shielded pulsed-field gradient coil. […] The experiments were recorded using the standard pulse sequence in the (WLOGSY_ES) Chempack library, with excitation sculpting to suppress water resonances. […]

binding to heparin agarose (qualitative) [2]: binding
Structure (SMILES): CCN(CC)CCN(CC(=O)N(CCN1CCCC1)CC(=O)N(CCC1CCCN1C)CC(N)=O)C(=O)OCc1ccccc1 (centres unmarked) [CSIC02]
effect on dp14 heparin-induced chemical shift perturbations of SCTWT [1]: modest decrease in dp14-induced perturbations
